The record followed here is patent US20060241162A1, “Optically active (R)-hydantoin derivative” (priority 2005, published 2006).

The test system of the test is model rats for renal insufficiency. Nature of the test: Suppressive action to the progression of renal failure in adenine-induced renal insufficiency model rats. It is filed as in vivo, Wistar-strain male rats. The source says:
(1) Suppressive Action of the Optical Isomer to the Progression of Renal Failure
Adenine was orally administered to Wistar-strain male rats of eight weeks age to prepare a renal insufficiency model. […] Further, a value of creatinine clearance (mL/kg/hr) decreased from 315.3±13.8 to 25.7±4.4 whereupon renal functions lowered to about one-tenth.
From the 7th to the 17th days from administration of adenine, each of (S)-(−)- 5-hydroxy-1-methylhydantoin, (R)-(+)-5-hydroxy-1-methylhydantoin and the racemate at the dose of 100 mg/kg or 200 mg/kg was orally administered to the rat in which renal insufficiency was induced by adenine. The creatinine levels in blood before and after the administration of the test drug were compared whereupon a suppressive action of the test drug to an increase of creatinine (ΔCr) accompanied by the progress of renal insufficiency was checked and the results are shown in FIG. 1 and FIG. 2. Five rats were used as a group for the test. The average value ± standard error was calculated and the significant difference between the test drug group and the diseased control group was statistically analyzed by means of Dunnett's test or Student-t test (*; p<0.05).

Entries after “also recorded” stand apart in the source; their conditions may differ.

Take `CN1C(=O)NC(=O)[C@H]1O` [(R)-(+)-5-hydroxy-1-methylhydantoin]: the “suppressive action to the progression of renal failure” value (as compared with the S-form and the racemate, oral, listed as R-form) is given as “excellent suppressive action; also recorded: particularly an excellent suppressive effect”. Besides, the “suppressive action to an increase of creatinine in blood (ΔCr)” value (oral 100 mg/kg or 200 mg/kg, 7th to 17th day of adenine, vs diseased control, p<0.05, FIG. 1 and FIG. 3) is recorded as “significantly suppressed”.
